Experimental data as given in patent US20250122221A1 (NANJING ZAIMING PHARMACEUTICAL CO., LTD., priority 2022, published 2025).

target: N-terminal active peptide segment (MI-N899) of POLQ with ATPase activity (Homo sapiens (Human), UniProt O75417); experiment: POLQ enzyme activity inhibition experiment (ATPase, NADH-coupled, OD 340 nm); format: biochemical; settings: 100 nM POLQ (N), 100 μM ATP, 300 nM dT50
Procedure: The Envision microplate reader from Perkin Elmer Inc was used to measure the reduction of OD value of NADH at 340 nm, thus reflecting the enzyme activity. Experimental method: The POLQ enzyme was diluted to 100 nM with a reaction buffer (20 mM Tris HCl (pH 7.80), 80 mM KCl, 10 mM MgCl2, 1 mM DTT, 0.01% w/v bovine serum albumin, 0.01% v/v Tween-20, and 5% v/v glycerol). The compounds to be tested were diluted to different concentrations in dimethyl sulfoxide (DMSO) using the Echo 650 pipetting system, and transferred to a 384-well plate, 20 μL/well of 100 nM POLQ was added, and the mixture was incubated at room temperature for 15 minutes. A reaction mixture solution was formulated, and the concentration of each component in the reaction mixture solution was: 100 μM ATP, 300 nM […], 300 μM NADH, 6 mM PEP, 10 U/mL lactate dehydrogenase and 20 U/mL pyruvate kinase. 20 μL/well of reaction mixture solution was added to start the enzyme reaction. […] The concentration range was from 10 μM to 0.0005 μM, and the final concentration of DMSO in the system was 0.2% v/v. The 384-well plate was reacted at room temperature for 20 minutes, and then the OD value at 340 nm was read with an Envision microplate reader. The inhibition rate was calculated, and XLfit software was used to perform fitting to obtain IC50 of the compounds. In the experiment, a blank group and a DMSO group were set up, respectively.

N-terminal active peptide segment (MI-N899) of POLQ with ATPase activity, sequence (O75417 1-899 limits assumed): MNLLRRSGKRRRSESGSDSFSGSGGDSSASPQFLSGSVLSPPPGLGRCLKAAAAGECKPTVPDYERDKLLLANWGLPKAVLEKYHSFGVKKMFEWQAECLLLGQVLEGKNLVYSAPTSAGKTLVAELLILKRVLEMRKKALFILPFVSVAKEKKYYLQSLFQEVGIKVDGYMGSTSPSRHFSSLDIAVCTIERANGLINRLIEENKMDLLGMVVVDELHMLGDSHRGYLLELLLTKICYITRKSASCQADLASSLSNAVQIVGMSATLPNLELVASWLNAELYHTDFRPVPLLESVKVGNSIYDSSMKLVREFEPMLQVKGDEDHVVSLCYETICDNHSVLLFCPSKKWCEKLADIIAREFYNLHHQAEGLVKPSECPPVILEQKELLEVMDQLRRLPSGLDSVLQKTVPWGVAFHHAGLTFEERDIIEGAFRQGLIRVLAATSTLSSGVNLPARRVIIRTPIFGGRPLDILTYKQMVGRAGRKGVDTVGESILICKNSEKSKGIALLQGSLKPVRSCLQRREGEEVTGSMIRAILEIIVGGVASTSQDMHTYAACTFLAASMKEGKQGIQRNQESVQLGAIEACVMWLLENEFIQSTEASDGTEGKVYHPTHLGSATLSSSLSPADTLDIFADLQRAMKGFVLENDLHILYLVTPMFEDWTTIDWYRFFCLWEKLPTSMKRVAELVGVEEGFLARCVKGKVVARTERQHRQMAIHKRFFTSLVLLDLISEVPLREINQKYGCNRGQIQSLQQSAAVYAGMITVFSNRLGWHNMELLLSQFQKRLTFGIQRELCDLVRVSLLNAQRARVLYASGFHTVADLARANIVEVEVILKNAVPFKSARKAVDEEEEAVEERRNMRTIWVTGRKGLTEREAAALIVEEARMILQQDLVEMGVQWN

| IC50 | Structure (SMILES) |
| --- | --- |
| < 100 nM | C#Cc1ccccc1-c1cc(Cl)ncc1C(=O)Nc1nc2ncc(-c3ccc(C#N)cc3)nc2s1 [Compound 43, 6-chloro-N-(6-(4-cyanophenyl)thiazolo[4,5-b]pyrazin-2-yl)-4-(2-ethynylphenyl)pyridine-3-carboxamide] |
| < 100 nM | COc1ncccc1-c1cc(C)ncc1C(=O)Nc1nc2ncc(-c3ccc(C#N)cc3)nc2s1 [Compound 44, N-(6-(4-cyanophenyl)thiazolo[4,5-b]pyrazin-2-yl)-2-methoxy-6′-methyl-[3,4′-bipyridine]-3′-carboxamide] |
| < 100 nM | COc1cnccc1-c1cc(C)ncc1C(=O)Nc1nc2ncc(-c3ccc(C#N)cc3)nc2s1 [Compound 45, N-(6-(4-cyanophenyl)thiazolo[4,5-b]pyrazin-2-yl)-3′-methoxy-6-methyl-[4,4′-bipyridine]-3-carboxamide] |
| < 100 nM | C#Cc1cc(F)ccc1-c1cc(C)ncc1C(=O)Nc1nc2ncc(-c3ccc(C#N)cc3)nc2s1 [Compound 47, N-(6-(4-cyanophenyl)thiazolo[4,5-b]pyrazin-2-yl)-4-(2-ethynyl-4-fluorophenyl)-6-methylpyridine-3-carboxamide] |
| < 100 nM | C#Cc1cccc(F)c1-c1cc(C)ncc1C(=O)Nc1nc2ncc(-c3ccc(C#N)cc3)nc2s1 [Compound 49, N-(6-(4-cyanophenyl)thiazolo[4,5-b]pyrazin-2-yl)-4-(2-ethynyl-6-fluorophenyl)-6-methylpyridine-3-carboxamide] |
| < 100 nM | COc1ccccc1-c1ncccc1C(=O)Nc1nc2ncc(-c3ccc(C#N)cc3)nc2s1 [Compound 50, N-(6-(4-cyanophenyl)thiazolo[4,5-b]pyrazin-2-yl)-2-(2-methoxyphenyl)pyridine-3-carboxamide] |
| < 100 nM | COc1ccccc1-c1cncnc1C(=O)Nc1nc2ncc(-c3ccc(C#N)cc3)nc2s1 [Compound 52, N-(6-(4-cyanophenyl)thiazolo[4,5-b]pyrazin-2-yl)-5-(2-methoxyphenyl)pyrimidine-4-carboxamide] |
| 100 to 500 nM | COc1ccccc1-c1cnc(C(F)(F)F)cc1C(=O)Nc1nc2ncc(-c3ccc(C#N)cc3)nc2s1 [Compound 53, N-(6-(4-cyanophenyl)thiazolo[4,5-b]pyrazin-2-yl)-5-(2-methoxyphenyl)-2-(trifluoromethyl)pyridine-4-carboxamide] |
| < 100 nM | COc1ccccc1-c1cncc(F)c1C(=O)Nc1nc2ncc(-c3ccc(C#N)cc3)nc2s1 [Compound 54, N-(6-(4-cyanophenyl)thiazolo[4,5-b]pyrazin-2-yl)-3-fluoro-5-(2-methoxyphenyl)pyridine-4-carboxamide] |
| < 100 nM | COc1ccccc1-c1ccccc1C(=O)Nc1nc2ncc(-c3ccc(C#N)cc3)nc2s1 [Compound 55, N-(6-(4-cyanophenyl)thiazolo[4,5-b]pyrazin-2-yl)-2′-methoxy-[1,1′-biphenyl]-2-carboxamide] |
| < 100 nM | COc1ccccc1-c1cn2ncnc2cc1C(=O)Nc1nc2ncc(-c3ccc(C#N)cc3)nc2s1 [Compound 57, N-(6-(4-cyanophenyl)thiazolo[4,5-b]pyrazin-2-yl)-6-(2-methoxyphenyl)-[1,2,4]triazolo[1,5-a]pyridine-7-carboxamide] |
| < 100 nM | C#Cc1ccccc1-c1nc(C)ncc1C(=O)Nc1nc2ncc(-c3ccc(C#N)cc3)nc2s1 [Compound 59, N-(6-(4-cyanophenyl)thiazolo[4,5-b]pyrazin-2-yl)-4-(2-ethynylphenyl)-2-methylpyrimidine-5-carboxamide] |
| < 100 nM | C#Cc1ccccc1-c1cc(C)ncc1C(=O)Nc1nc2ncc(-c3ccc(C#N)cc3)cc2s1 [Compound 60, N-(6-(4-cyanophenyl)thiazolo[4,5-b]pyridin-2-yl)-4-(2-ethynylphenyl)-6-methylpyridine-3-carboxamide] |
| < 100 nM | COc1cnc(C#N)cc1-c1cc(C)ncc1C(=O)Nc1nc2ncc(-c3ccc(Cl)cn3)nc2s1 [Compound 65, N-(6-(5-chloropyridin-2-yl)thiazolo[4,5-b]pyrazin-2-yl)-2′-cyano-5′-methoxy-6-methyl-[4,4′-bipyridine]-3-carboxamide] |
| < 100 nM | COc1cnc(C)cc1-c1cc(C)ncc1C(=O)Nc1nc2ncc(-c3ccc(Cl)cn3)nc2s1 [Compound 66, N-(6-(5-chloropyridin-2-yl)thiazolo[4,5-b]pyrazin-2-yl)-5′-methoxy-2′,6-dimethyl-[4,4′-bipyridine]-3-carboxamide] |
| < 100 nM | COc1cnc(C)cc1-c1cc(C)ncc1C(=O)Nc1nc2ncc(-c3ccc(Cl)cc3)nc2s1 [Compound 67, N-(6-(4-chlorophenyl)thiazolo[4,5-b]pyrazin-2-yl)-5′-methoxy-2′,6-dimethyl-[4,4′-bipyridine]-3-carboxamide] |
| < 100 nM | COc1cnc(C)cc1-c1cc(C)ncc1C(=O)Nc1nc2ncc(C3CCOC3)nc2s1 (stereo not shown) [Compound 69-P1, N-(6-(tetrahydrofuran-3-yl)thiazolo[4,5-b]pyrazin-2-yl)-5′-methoxy-2′,6-dimethyl-[4,4′-bipyridine]-3-carboxamide] |
| < 100 nM | COc1cnc(C)cc1-c1cc(C)ncc1C(=O)Nc1nc2ncc(-c3ccc(C#N)cc3F)nc2s1 [Compound 70, N-(6-(4-cyano-2-fluorophenyl)thiazolo[4,5-b]pyrazin-2-yl)-5′-methoxy-2′,6-dimethyl-[4,4′-bipyridine]-3-carboxamide] |
| < 100 nM | COc1ccc(Cl)cc1-c1cc(C)ncc1C(=O)Nc1nc2ncc(-c3ccc(Cl)cn3)nc2s1 [Compound 71, 4-(5-chloro-2-methoxyphenyl)-N-(6-(5-chloropyridin-2-yl)thiazolo[4,5-b]pyrazin-2-yl)-6-methylpyridine-3-carboxamide] |
| < 100 nM | COc1cnc(C)c(F)c1-c1cc(C)ncc1C(=O)Nc1nc2ncc(-c3ccc(C#N)cc3)nc2s1 [Compound 76, N-(6-(4-cyanophenyl)thiazolo[4,5-b]pyrazin-2-yl)-3′-fluoro-5′-methoxy-2′,6-dimethyl-[4,4′-bipyridine]-3-carboxamide] |
| < 100 nM | Cc1cc(-c2cc(Cl)ccc2C(F)(F)F)c(C(=O)Nc2nc3ncc(-c4ccc(C#N)cc4)nc3s2)cn1 [Compound 88, 4-(5-chloro-2-(trifluoromethyl)phenyl)-N-(6-(4-cyanophenyl)thiazolo[4,5-b]pyrazin-2-yl)-6-methylpyridine-3-carboxamide] |
| < 100 nM | Cc1cc(-c2cc(Cl)ccc2OC(F)F)c(C(=O)Nc2nc3ncc(-c4ccc(C#N)cc4)nc3s2)cn1 [Compound 89, 4-(5-chloro-2-(difluoromethoxy)phenyl)-N-(6-(4-cyanophenyl)thiazolo[4,5-b]pyrazin-2-yl)-6-methylpyridine-3-carboxamide] |
| < 100 nM | Cc1cc(-c2cc(Cl)ccc2OC(F)(F)F)c(C(=O)Nc2nc3ncc(-c4ccc(C#N)cc4)nc3s2)cn1 [Compound 90, 4-(5-chloro-2-(trifluoromethoxy)phenyl)-N-(6-(4-cyanophenyl)thiazolo[4,5-b]pyrazin-2-yl)-6-methylpyridine-3-carboxamide] |

| Structure (SMILES) | IC50 |
| --- | --- |
| COc1ccccc1-c1cn2ccnc2cc1C(=O)Nc1nc2ncc(-c3ccc(C#N)cc3)nc2s1 [Compound 41, N-(6-(4-cyanophenyl)thiazolo[4,5-b]pyrazin-2-yl)-6-(2-methoxyphenyl)imidazo[1,2-a]pyridine-7-carboxamide] | < 100 nM |
| C#Cc1cnc(C)cc1-c1cc(C)ncc1C(=O)Nc1nc2ncc(-c3ccc(C#N)cc3)nc2s1 [Compound 64, N-(6-(4-cyanophenyl)thiazolo[4,5-b]pyrazin-2-yl)-5′-ethynyl-2′,6-dimethyl-[4,4′-bipyridine]-3-carboxamide] | < 100 nM |
